SMILES strings stand for the structures.

Series [1] concerns A431 epidermoid carcinoma cell line. Nature of the series: CellTiter-Glo (CTG) cytotoxic assay. Particulars: Homo sapiens, A-431, 72 h, read-out: Cytotoxicity IC50, A431.
The test system of series [2] is BT474 breast cancer cell line. Nature of the series: CellTiter-Glo (CTG) cytotoxic assay. The conditions noted are these: Homo sapiens, BT-474, 72 h, read-out: Cytotoxicity IC50, BT474.
In series [3] the test system is MDA-MB-468 breast cancer cell line. Nature of the series: CellTiter-Glo (CTG) cytotoxic assay. Particulars: Homo sapiens, MDA-MB-468, 72 h, read-out: Cytotoxicity IC50, MDA-MB-468.
The subject of series [4] is U251 glioblastoma cell line. As to the kind of experiment: CellTiter-Glo (CTG) cytotoxic assay. Particulars: Homo sapiens, U-251, 72 h, read-out: Cytotoxicity IC50, U251.
The test system of series [5] is HCC1954 ductal carcinoma cell line. Nature of the series: CellTiter-Glo (CTG) cytotoxic assay. The conditions noted are these: Homo sapiens, HCC1954, 72 h, read-out: Cytotoxicity IC50, HCC1954.
The test system of series [6] is MCF-7 breast cancer cell line. Nature of the series: CellTiter-Glo (CTG) cytotoxic assay. The conditions noted are these: Homo sapiens, MCF7, 72 h, read-out: Cytotoxicity IC50, MCF-7.
Series [7] relates to MKN-45 gastric cancer cell line. As to the kind of experiment: CellTiter-Glo (CTG) cytotoxic assay. Particulars: Homo sapiens, MKN-45, 72 h, read-out: Cytotoxicity IC50, MKN-45.
The test system of series [8] is Hep3B liver cancer cell line. Nature of the series: CellTiter-Glo (CTG) cytotoxic assay. The conditions noted are these: Homo sapiens, 72 h, read-out: Cytotoxicity IC50, Hep3B.
Series [9] has as its system H1975 lung cancer cell line. As to the kind of experiment: CellTiter-Glo (CTG) cytotoxic assay. Particulars: Homo sapiens, NCI-H1975, 72 h, read-out: Cytotoxicity IC50, H1975.
The subject of series [10] is A673 rhabdomyoma cell line. As to the kind of experiment: CellTiter-Glo (CTG) cytotoxic assay. Particulars: Homo sapiens, A673, 72 h, read-out: Cytotoxicity IC50, A673.
In series [11] the test system is H2228 lung cancer cell line. Nature of the series: CellTiter-Glo (CTG) cytotoxic assay. The conditions noted are these: Homo sapiens, NCI-H2228, 72 h, read-out: Cytotoxicity IC50, H2228.
For series [12], the system named is MDA-MB-231 breast cancer cell line. As to the kind of experiment: CellTiter-Glo (CTG) cytotoxic assay. The conditions noted are these: Homo sapiens, MDA-MB-231, 72 h, read-out: Cytotoxicity IC50, MDA-MB-231.
The test system of series [13] is U87 glioblastoma cell line. Nature of the series: CellTiter-Glo (CTG) cytotoxic assay. The conditions noted are these: Homo sapiens, 72 h, read-out: Cytotoxicity IC50, U87.
For series [14], the system named is Karpass299 T cell lymphoma cell line. As to the kind of experiment: CellTiter-Glo (CTG) cytotoxic assay. The conditions noted are these: Homo sapiens, 72 h, read-out: Cytotoxicity IC50, Karpass299.
The test system of series [15] is HL-60 leukemia cell line. As to the kind of experiment: CellTiter-Glo (CTG) cytotoxic assay. Particulars: Homo sapiens, HL-60, 72 h, read-out: Cytotoxicity IC50, HL60.
In series [16] the test system is MV-4-11 leukemia cell line. As to the kind of experiment: CellTiter-Glo (CTG) cytotoxic assay. Particulars: Homo sapiens, MV4-11, 72 h, read-out: Cytotoxicity IC50, MV-4-11.
The test system of series [17] is N87 gastric carcinoma cell line. As to the kind of experiment: CellTiter-Glo (CTG) cytotoxic assay. Particulars: Homo sapiens, 72 h, read-out: Cytotoxicity IC50, N87.
Series [18] concerns H1299 lung cancer cell line. As to the kind of experiment: CellTiter-Glo (CTG) cytotoxic assay. The conditions noted are these: Homo sapiens, NCI-H1299, 72 h, read-out: Cytotoxicity IC50, H1299.
Series [19] deals with A549 lung cancer cell line. Nature of the series: CellTiter-Glo (CTG) cytotoxic assay. The conditions noted are these: Homo sapiens, A549, 72 h, read-out: Cytotoxicity IC50, A549.
The subject of series [20] is K562 leukemia cell line. As to the kind of experiment: CellTiter-Glo (CTG) cytotoxic assay. The conditions noted are these: Homo sapiens, K562, 72 h, read-out: Cytotoxicity IC50, K562.
Series [21] relates to HCT-116 human colon carcinoma cell line. As to the kind of experiment: CellTiter-Glo (CTG) cytotoxic assay. Particulars: HCT-116, 72 h, read-out: Cytotoxicity IC50, HCT-116.
The subject of series [22] is 143B bone osteosarcoma cell line. As to the kind of experiment: CellTiter-Glo (CTG) cytotoxic assay. Particulars: Homo sapiens, 72 h, read-out: Cytotoxicity IC50, 143B.
For series [23], the system named is B16F10 highly metastatic mouse melanoma cell line. Nature of the series: CellTiter-Glo (CTG) cytotoxic assay. The conditions noted are these: B16-F10, 72 h, read-out: Cytotoxicity IC50, B16F10.
Series [24] deals with SPC-A1 lung cancer cell line. Nature of the series: CellTiter-Glo (CTG) cytotoxic assay. Particulars: Homo sapiens, SPCA1, 72 h, read-out: Cytotoxicity IC50, SPC-A1.
Series [25] relates to HUCCT1 ductal carcinoma cell line. As to the kind of experiment: CellTiter-Glo (CTG) cytotoxic assay. The conditions noted are these: Homo sapiens, HuCCT-1, 72 h, read-out: Cytotoxicity IC50, HUCCT1.
Series [26] deals with DU145 prostate cancer cell line. As to the kind of experiment: CellTiter-Glo (CTG) cytotoxic assay. The conditions noted are these: Homo sapiens, DU-145, 72 h, read-out: Cytotoxicity IC50, DU145.
Series [27] deals with 26 cancer cell lines. Nature of the series: CTG cytotoxic assay, summary over the panel. Particulars: read-out: IC50 values against 26 cancer cell lines, range.
Series [28] is described as follows: CellTiter-Glo (CTG) cytotoxic assay, normal cells. The conditions noted are these: human, L02 normal liver cells.
The nature of series [29]: CellTiter-Glo (CTG) cytotoxic assay, normal cells. The conditions noted are these: human, HEK-293F cells.
For series [30], the system named is cancer cells. Nature of the series: Cytotoxicity (MTT, SRB, CTG), summary over all cancer cells. Particulars: read-out: IC50 values against cancer cells, range.
Series [31] deals with HCT-116 human colorectal cancer cell line. As to the kind of experiment: SRB cytotoxicity assay. Particulars: read-out: Cytotoxicity IC50, HCT-116; SRB method, 72 h (Table 5); NA = no activity.
For series [32], the system named is HT-29 human colorectal cancer cell line. Nature of the series: SRB cytotoxicity assay. The conditions noted are these: read-out: Cytotoxicity IC50, HT-29; SRB method, 72 h (Table 5).
In series [33] the test system is P6C human colorectal cancer cell line. Nature of the series: MTT cytotoxicity assay. Particulars: read-out: Cytotoxicity IC50, P6C; MTT method, 72 h (Table 5).
For series [34], the system named is BXPC-3 human pancreatic cancer cell line. Nature of the series: SRB cytotoxicity assay. Particulars: read-out: Cytotoxicity IC50, BXPC-3; SRB method, 72 h (Table 5).
Series [35] concerns K562 cell line. As to the kind of experiment: MTT cytotoxicity assay. Particulars: read-out: Cytotoxicity IC50, K562; MTT method, 72 h (Table 5); NA = no activity.
In series [36] the test system is HCT-116, HT-29, P6C and BXPC-3 cell lines. As to the kind of experiment: SRB/MTT cytotoxicity assays, summary over CRC and pancreatic lines. The conditions noted are these: Homo sapiens, read-out: IC50 values against HCT-116, HT-29, P6C and BXPC-3, range.
Series [37] relates to Jurkat cell line. As to the kind of experiment: MTT cytotoxicity assay. Particulars: read-out: Cytotoxicity IC50, Jurkat; MTT method, 72 h (Table 5).
The subject of series [38] is MCF-7 human breast cancer cell line. As to the kind of experiment: MTT cytotoxicity assay. The conditions noted are these: read-out: Cytotoxicity IC50, MCF-7; MTT method, 72 h (Table 5); NA = no activity.
The test system of series [39] is other 26 cell lines (Table 4 without N87). As to the kind of experiment: CTG cytotoxic assay, summary over the other cell lines of Table 4. The conditions noted are these: read-out: IC50 against other 26 cell lines.

As to `CC(=O)NCc1nc(-c2ccccn2)cc(O)c1[S+](C)[O-]` (racemic) [(±)-2, N-[(4-hydroxy-5-methylsulfinyl-2,2′-bipyridin-6-yl)methyl] acetamide], the IC50 stood at 4630 nM in [1]; 8240 nM in series [2]; 1310 nM in series [3]; 4790 nM in series [4]; 2140 nM in series [5]; 5780 nM in series [6]. In addition, the 50% inhibitory concentration (IC50) in series [7] was 4880 nM; in [8], 4420 nM; in [9], 2550 nM; in series [10], 6900 nM; in [11] it was 8050 nM; in [12], 920 nM. The IC50 in [13] was determined as 3670 nM; in series [14], 3130 nM; in [15], 3180 nM; in series [16], 9710 nM; in [17], 7460 nM; in series [18], 7380 nM. Besides, the IC50 was 4180 nM in series [19]; 5920 nM in series [20]; 2450 nM in [21]; 8390 nM in series [22]; 7740 nM in [23]; 7830 nM in [24]. The half-inhibitory concentration (IC50) is 7910 nM in series [25], 4510 nM in series [26], 920 to 9710 nM in [27] and 48 to 9710 nM in series [30]. Besides, the IC50 at 72 h in [28] and in series [29] was over 100000 nM each time.
With `COc1cc(-c2ccccn2)nc(/C=N/O)c1[S+](C)[O-]` (racemic) [(±)-3, pyrisulfoxin A], the concentration for half-maximal inhibition (IC50) was 730 nM in series [31]; 830 nM in series [32]; 3200 nM in series [33]; 1600 nM in [34]; 13000 nM in series [35]; 48 to 9710 nM in [30]. Further, the IC50 in series [36] fell in the range of 48 to 3200 nM.
Regarding `COc1cccc2c1C(=O)c1c(O)c3c(c(O)c1C2=O)C[C@@](O)(C(=O)CO)C[C@@H]3O[C@H]1C[C@H](N)[C@H](O)[C@H](C)O1` [Adriamycin, reference compound], the half-inhibitory concentration (IC50) was found to be 210 nM in [31]; 160 nM in [32]; 650 nM in series [33]; 32 nM in series [34]; 250 nM in [35]; 440 nM in [37]. Also, the IC50 in series [38] was 860 nM; in series [1], 170 nM; in series [2] it was 1940 nM; in series [3], over 100000 nM; in series [4], 190 nM; in series [5], 48 nM. The IC50 was 100 nM in [6]; 190 nM in series [7]; 17600 nM in [8]; 91 nM in [9]; 130 nM in series [10]; 97 nM in series [11]. Moreover, the IC50 was determined as 180 nM in series [12]; 120 nM in series [13]; 390 nM in series [14]; 210 nM in [15]; 160 nM in series [16]; 120 nM in [17]. The IC50 in series [18] is 490 nM; in series [19], 99 nM; in series [20] it was 18 nM; in series [21], 100 nM; in series [22], 95 nM; in series [23] it was 15 nM. The IC50 in [24] is 190 nM; in [25] it was 51 nM; in [26], 48 nM. For the same molecule, the results for the IC50 at 72 h in series [28] and in [29] were 96 nM and 50 nM, respectively.
As to `COc1cc(-c2ccccn2)nc([C@H]2NC(=O)c3ccccc3N2)c1SC` [R(–)-14, R-Pyrisulfoxin F], in series [31], the IC50 amounted to 14700 nM.
Take `COc1cc(-c2ccccn2)nc([C@@H]2NC(=O)c3ccccc3N2)c1SC` [S(+)-14, S-Pyrisulfoxin F]: the IC50 in series [38] was found to be 10400 nM.
Regarding `COc1cc(-c2ccccn2)nc(CO)c1[S+](C)[O-]` (stereo not shown) [compound 1, 4-methoxy-5-methylsulfinyl-2,2′-bipyridine-6-methanol], the concentration for half-maximal inhibition (IC50) in [17] is 8090 nM; in series [30], 48 to 9710 nM; in series [39], over 100000 nM. Besides, the IC50 at 72 h in series [28] and in [29] was over 100000 nM each time.

The record behind these values is publication PMC7218127, “Cytotoxic and Optically Active Pyrisulfoxins From the Endophytic Streptomyces albolongus EA12432” (Frontiers in Chemistry, 2020).
